From patent publication US6737383B1, “Herbicidal oxadiazolidines” (priority 1999, dated 2004)

What was measured:
purple nutsedge = experiment: Test B pre/postemergence purple nutsedge; assay type: in vivo, Cyperus rotundus; conditions: for Nutsedge plant response rating: scale of 0 to 10 where 0 is no effect and 10 is complete control
Procedure, shortened: (§1)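 Test chemicals in a non-phytotoxic solvent mixture with surfactant were sprayed preemergence onto planted seeds and postemergence onto plants 2 to 18 cm tall (1- to 4-leaf stage). After twelve to sixteen days in a greenhouse, injury was visually rated against untreated controls from 0 (no effect) to 10 (complete control).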

corn = experiment: Test B pre/postemergence corn; assay type: in vivo, Zea mays; conditions: for Corn plant response rating: scale of 0 to 10 where 0 is no effect and 10 is complete control
Procedure, shortened: as §1

cocklebur = experiment: Test B pre/postemergence cocklebur; assay type: in vivo, Xanthium strumarium; conditions: for Cocklebur plant response rating: scale of 0 to 10 where 0 is no effect and 10 is complete control
Procedure, shortened: as §1

wheat = experiment: Test B pre/postemergence wheat; assay type: in vivo, Triticum aestivum; conditions: for Wheat plant response rating: scale of 0 to 10 where 0 is no effect and 10 is complete control
Procedure, shortened: as §1

smallflower flatsedge = experiment: Test B flood test smallflower flatsedge; assay type: in vivo, Cyperus difformis
Procedure, shortened: (§2)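 Read-out is a visual response score from 0 (no effect) to 10 (complete control), assigned by comparison with untreated controls. Treatment was applied at the 2-leaf stage, and plants stayed in the greenhouse for twelve to sixteen days before scoring.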

giant foxtail = experiment: Test B pre/postemergence giant foxtail; assay type: in vivo, Setaria faberii; conditions: for Giant foxtail plant response rating: scale of 0 to 10 where 0 is no effect and 10 is complete control
Procedure, shortened: as §1

sugar beet = experiment: Test B pre/postemergence sugar beet; assay type: in vivo, Beta vulgaris; conditions: for Sugarbeets plant response rating: scale of 0 to 10 where 0 is no effect and 10 is complete control
Procedure, shortened: as §1

morningglory = experiment: Test B pre/postemergence morningglory; assay type: in vivo, Ipomoea hederacea; conditions: for Morningglory plant response rating: scale of 0 to 10 where 0 is no effect and 10 is complete control
Procedure, shortened: as §1

surinam grass = experiment: Test B pre/postemergence surinam grass; assay type: in vivo, Brachiaria decumbens; conditions: for B. signalgrass plant response rating: scale of 0 to 10 where 0 is no effect and 10 is complete control
Procedure, shortened: as §1

wild oat = experiment: Test B pre/postemergence wild oat; assay type: in vivo, Avena fatua; conditions: for Wild oats plant response rating: scale of 0 to 10 where 0 is no effect and 10 is complete control
Procedure, shortened: as §1

rice = experiment: Test B flood test rice; assay type: in vivo, Oryza sativa
Procedure, shortened: as §2

duck salad = experiment: Test B flood test duck salad; assay type: in vivo, Heteranthera limosa
Procedure, shortened: as §2

crabgrass = experiment: Test B pre/postemergence crabgrass; assay type: in vivo, Digitaria sanguinalis; conditions: for Crabgrass plant response rating: scale of 0 to 10 where 0 is no effect and 10 is complete control
Procedure, shortened: as §1

pigweed = experiment: Test B pre/postemergence pigweed; assay type: in vivo, Amaranthus retroflexus; conditions: for Redroot pigweed plant response rating: scale of 0 to 10 where 0 is no effect and 10 is complete control
Procedure, shortened: as §1

rape = experiment: Test B pre/postemergence rape; assay type: in vivo, Brassica napus; conditions: for Rape plant response rating: scale of 0 to 10 where 0 is no effect and 10 is complete control
Procedure, shortened: as §1

bamyardgrass = experiment: Test B flood test barnyardgrass; assay type: in vivo, Echinochloa crus-galli
Procedure, shortened: as §2

[1] = Postemergence, Rate 125 g/ha, scale 0 to 10, 0 is no effect, 10 is complete control
[2] = Postemergence, Rate 250 g/ha, scale 0 to 10, 0 is no effect, 10 is complete control
[3] = Preemergence, Rate 62 g/ha, scale 0 to 10 (0 no effect, 10 complete control)
[4] = Rate 500 g/ha, Postemergence, scale 0 to 10, 0 no effect, 10 complete control
[5] = Rate 62 g/ha, flood test species, Pre-emergence, visual evaluation after twelve to sixteen days
[6] = Rate 125 g/ha, under heading Pre-emergence, flood test species, visual evaluation after twelve to sixteen days
[7] = Rate 250 g/ha, Pre-emergence, flood-test species, scale 0 to 10, 0 is no effect, 10 is complete control
[8] = Rate 500 g/ha, Pre-emergence, flood test species, scale 0 to 10 (0 no effect, 10 complete control)

SMILES: CCOc1nc(C(F)(F)F)c(Cn2c(=O)on(C(=O)N(c3ccc(F)cc3)C(C)C)c2=O)s1 [Compound 381]
- Plant response rating, Nutsedge (purple nutsedge; [1]): 0
- Plant response rating, Nutsedge (purple nutsedge; [2]): 0
- Plant response rating, Nutsedge (purple nutsedge; [3]): 0
- Nutsedge plant response rating (0 to 10 scale) (purple nutsedge; Preemergence, Rate 125 g/ha): 0
- Nutsedge plant response rating (purple nutsedge; Preemergence, Rate 250 g/ha): 0
- Nutsedge plant response rating (purple nutsedge; Preemergence, Rate 500 g/ha): 0
- Nutsedge plant response rating (purple nutsedge; Rate 62 g/ha, Postemergence): 0
- Plant response rating, Nutsedge (purple nutsedge; [4]): 0
- Plant response rating, Corn (corn; [1]): 0
- Plant response rating, Corn (corn; [2]): 0
- Plant response rating, Corn (corn; [3]): 0
- Corn plant response rating (0 to 10 scale) (corn; Preemergence, Rate 125 g/ha): 0
- Corn plant response rating (corn; Preemergence, Rate 250 g/ha): 0
- Corn plant response rating (corn; Preemergence, Rate 500 g/ha): 2
- Corn plant response rating (corn; Rate 62 g/ha, Postemergence): 0
- Plant response rating, Corn (corn; [4]): 0
- Plant response rating, Cocklebur (cocklebur; [1]): 0
- Plant response rating, Cocklebur (cocklebur; [2]): 0
- Plant response rating, Cocklebur (cocklebur; [3]): 0
- Cocklebur plant response rating (0 to 10 scale) (cocklebur; Preemergence, Rate 125 g/ha): 0
- Cocklebur plant response rating (cocklebur; Preemergence, Rate 250 g/ha): 0
- Cocklebur plant response rating (cocklebur; Preemergence, Rate 500 g/ha): 0
- Cocklebur plant response rating (cocklebur; Rate 62 g/ha, Postemergence): 0
- Plant response rating, Cocklebur (cocklebur; [4]): 0
- Plant response rating, Wheat (wheat; [1]): 0
- Plant response rating, Wheat (wheat; [2]): 0
- Plant response rating, Wheat (wheat; [3]): 0
- Wheat plant response rating (0 to 10 scale) (wheat; Preemergence, Rate 125 g/ha): 0
- Wheat plant response rating (wheat; Preemergence, Rate 250 g/ha): 0
- Wheat plant response rating (wheat; Preemergence, Rate 500 g/ha): 0
- Wheat plant response rating (wheat; Rate 62 g/ha, Postemergence): 0
- Plant response rating, Wheat (wheat; [4]): 0
- Plant response rating, S. Flatsedge (0 to 10 scale, 0 is no effect, 10 is complete control) (smallflower flatsedge; [5]): 0
- S. Flatsedge plant response rating (0 to 10 scale, 0 is no effect, 10 is complete control) (smallflower flatsedge; [6]): 0
- S. Flatsedge plant response rating (smallflower flatsedge; [7]): 0
- S. Flatsedge plant response rating (smallflower flatsedge; [8]): 0
- Plant response rating, Giant foxtail (giant foxtail; [1]): 0
- Plant response rating, Giant foxtail (giant foxtail; [2]): 0
- Plant response rating, Giant foxtail (giant foxtail; [3]): 0
- Giant foxtail plant response rating (0 to 10 scale) (giant foxtail; Preemergence, Rate 125 g/ha): 0
- Giant foxtail plant response rating (giant foxtail; Preemergence, Rate 250 g/ha): 5
- Giant foxtail plant response rating (giant foxtail; Preemergence, Rate 500 g/ha): 9
- Giant foxtail plant response rating (giant foxtail; Rate 62 g/ha, Postemergence): 0
- Plant response rating, Giant foxtail (giant foxtail; [4]): 0
- Plant response rating, Sugarbeets (sugar beet; [1]): 0
- Plant response rating, Sugarbeets (sugar beet; [2]): 0
- Plant response rating, Sugarbeets (sugar beet; [3]): 0
- Sugarbeets plant response rating (0 to 10 scale) (sugar beet; Preemergence, Rate 125 g/ha): 0
- Sugarbeets plant response rating (sugar beet; Preemergence, Rate 250 g/ha): 0
- Sugarbeets plant response rating (sugar beet; Preemergence, Rate 500 g/ha): 0
- Sugarbeets plant response rating (sugar beet; Rate 62 g/ha, Postemergence): 0
- Plant response rating, Sugarbeets (sugar beet; [4]): 0
- Plant response rating, Morningglory (morningglory; [1]): 2
- Plant response rating, Morningglory (morningglory; [2]): 2
- Plant response rating, Morningglory (morningglory; [3]): 0
- Morningglory plant response rating (0 to 10 scale) (morningglory; Preemergence, Rate 125 g/ha): 0
- Morningglory plant response rating (morningglory; Preemergence, Rate 250 g/ha): 0
- Morningglory plant response rating (morningglory; Preemergence, Rate 500 g/ha): 0
- Morningglory plant response rating (morningglory; Rate 62 g/ha, Postemergence): 2
- Plant response rating, Morningglory (morningglory; [4]): 7
- Plant response rating, B. signalgrass (surinam grass; [1]): 0
- Plant response rating, B. signalgrass (surinam grass; [2]): 0
- Plant response rating, B. signalgrass (surinam grass; [3]): 0
- B. signalgrass plant response rating (0 to 10 scale, 0 is no effect, 10 is complete control) (surinam grass; Preemergence, Rate 125 g/ha): 0
- B. signalgrass plant response rating (surinam grass; Preemergence, Rate 250 g/ha): 0
- B. signalgrass plant response rating (surinam grass; Preemergence, Rate 500 g/ha): 0
- B. signalgrass plant response rating (surinam grass; Rate 62 g/ha, Postemergence): 0
- Plant response rating, B. signalgrass (surinam grass; [4]): 0
- Plant response rating, Wild oats (wild oat; [1]): 0
- Plant response rating, Wild oats (wild oat; [2]): 0
- Plant response rating, Wild oats (wild oat; [3]): 0
- Wild oats plant response rating (0 to 10 scale) (wild oat; Preemergence, Rate 125 g/ha): 0
- Wild oats plant response rating (wild oat; Preemergence, Rate 250 g/ha): 0
- Wild oats plant response rating (wild oat; Preemergence, Rate 500 g/ha): 0
- Wild oats plant response rating (wild oat; Rate 62 g/ha, Postemergence): 0
- Plant response rating, Wild oats (wild oat; [4]): 0
- Plant response rating, Rice (0 to 10 scale, 0 is no effect, 10 is complete control) (rice; [5]): 0
- Rice plant response rating (0 to 10 scale, 0 is no effect, 10 is complete control) (rice; [6]): 0
- Rice plant response rating (rice; [7]): 0
- Rice plant response rating (rice; [8]): 0
- Plant response rating, Ducksalad (0 to 10 scale, 0 is no effect, 10 is complete control) (duck salad; [5]): 0
- Ducksalad plant response rating (0 to 10 scale, 0 is no effect, 10 is complete control) (duck salad; [6]): 0
- Ducksalad plant response rating (duck salad; [7]): 0
- Ducksalad plant response rating (duck salad; [8]): 0
- Plant response rating, Crabgrass (crabgrass; [1]): 0
- Plant response rating, Crabgrass (crabgrass; [2]): 0
- Plant response rating, Crabgrass (crabgrass; [3]): 0
- Crabgrass plant response rating (0 to 10 scale) (crabgrass; Preemergence, Rate 125 g/ha): 0
- Crabgrass plant response rating (crabgrass; Preemergence, Rate 250 g/ha): 3
- Crabgrass plant response rating (crabgrass; Preemergence, Rate 500 g/ha): 9
- Crabgrass plant response rating (crabgrass; Rate 62 g/ha, Postemergence): 0
- Plant response rating, Crabgrass (crabgrass; [4]): 0
- Plant response rating, Redroot pigweed (pigweed; [1]): 0
- Plant response rating, Redroot pigweed (pigweed; [2]): 0
- Plant response rating, Redroot pigweed (pigweed; [3]): 0
- Redroot pigweed plant response rating (0 to 10 scale) (pigweed; Preemergence, Rate 125 g/ha): 0
- Redroot pigweed plant response rating (pigweed; Preemergence, Rate 250 g/ha): 0
- Redroot pigweed plant response rating (pigweed; Preemergence, Rate 500 g/ha): 0
- Redroot pigweed plant response rating (pigweed; Rate 62 g/ha, Postemergence): 0
- Plant response rating, Redroot pigweed (pigweed; [4]): 2
- Plant response rating, Rape (rape; [1]): 0
- Plant response rating, Rape (rape; [2]): 0
- Plant response rating, Rape (rape; [3]): 0
- Rape plant response rating (0 to 10 scale) (rape; Preemergence, Rate 125 g/ha): 0
- Rape plant response rating (rape; Preemergence, Rate 250 g/ha): 0
- Rape plant response rating (rape; Preemergence, Rate 500 g/ha): 0
- Rape plant response rating (rape; Rate 62 g/ha, Postemergence): 0
- Plant response rating, Rape (rape; [4]): 6
- Plant response rating, Barnyardgrass (0 to 10 scale, 0 is no effect, 10 is complete control) (bamyardgrass; [5]): 0
- Barnyardgrass plant response rating (0 to 10 scale, 0 is no effect, 10 is complete control) (bamyardgrass; [6]): 0
- Barnyardgrass plant response rating (bamyardgrass; [7]): 0
- Barnyardgrass plant response rating (bamyardgrass; [8]): 0
